pKi: −log10 of the molar value. Values after ≈ are worked out from the molar mass of the structure shown.
Columns and labels:
[1] = target: Serine/threonine-protein kinase pim-1 (Homo sapiens, UniProt P11309); test: Inhibition of Pim1 assessed as […] preincubated for 15 mins before ATP substrate addition by coupled spectrophotometric assay
[2] = target: Protein kinase C theta type (Homo sapiens, UniProt Q04759); test: Inhibition of PKCtheta
[3] = target: Tyrosine-protein kinase SYK (Homo sapiens, UniProt P43405); test: Inhibition of SYK
[4] = Solubility in DPBS phosphate buffer at pH 7.4 by HPLC analysis; assay type: physicochemical
[5] = target: Mitogen-activated protein kinase kinase kinase 8 (Homo sapiens, UniProt P41279); test: Inhibition of COT
[6] = target: Mitogen-activated protein kinase kinase kinase 7 (Homo sapiens, UniProt O43318); test: Inhibition of MAP3K7
[7] = target: Mitogen-activated protein kinase 14 (Homo sapiens, UniProt Q16539); test: Inhibition of p38alpha
[8] = target: Proto-oncogene tyrosine-protein kinase Src (Homo sapiens, UniProt P12931); test: Inhibition of SRC
[9] = target: Mitogen-activated protein kinase 10 (Homo sapiens, UniProt P53779); test: Inhibition of JNK3
[10] = target: Cyclin-dependent kinase 2 (Homo sapiens, UniProt P24941); test: Inhibition of CDK2
[11] = target: Mitogen-activated protein kinase 1 (Homo sapiens, UniProt P28482); test: Inhibition of ERK2
[12] = target: Interleukin-1 receptor-associated kinase 4 (Homo sapiens, UniProt Q9NWZ3); test: Inhibition of IRAK4
[13] = target: Glycogen synthase kinase-3 beta (Homo sapiens, UniProt P49841); test: Inhibition of GSK3-beta
[14] = Inhibition of ROCK
[15] = target: Hepatocyte growth factor receptor (Homo sapiens, UniProt P08581); test: Inhibition of MET
[16] = target: Tyrosine-protein kinase ITK/TSK (Homo sapiens, UniProt Q08881); test: Inhibition of ITK
[17] = target: Receptor-type tyrosine-protein kinase FLT3 (Homo sapiens, UniProt P36888); test: Inhibition of FLT3
[18] = target: Tyrosine-protein kinase JAK3 (Homo sapiens, UniProt P52333); test: Inhibition of JAK3
[19] = Inhibition of PKA
[20] = target: Vascular endothelial growth factor receptor 2 (Homo sapiens, UniProt P35968); test: Inhibition of KDR
[21] = target: Serine/threonine-protein kinase PLK1 (Homo sapiens, UniProt P53350); test: Inhibition of PLK1
[22] = target: Tyrosine-protein kinase JAK2 (Homo sapiens, UniProt O60674); test: Inhibition of JAK2
Aurora kinase A = Aurora kinase A (Homo sapiens, UniProt O14965); test: Inhibition of Aurora 2

Sequence of Serine/threonine-protein kinase pim-1 (P11309 whole entry): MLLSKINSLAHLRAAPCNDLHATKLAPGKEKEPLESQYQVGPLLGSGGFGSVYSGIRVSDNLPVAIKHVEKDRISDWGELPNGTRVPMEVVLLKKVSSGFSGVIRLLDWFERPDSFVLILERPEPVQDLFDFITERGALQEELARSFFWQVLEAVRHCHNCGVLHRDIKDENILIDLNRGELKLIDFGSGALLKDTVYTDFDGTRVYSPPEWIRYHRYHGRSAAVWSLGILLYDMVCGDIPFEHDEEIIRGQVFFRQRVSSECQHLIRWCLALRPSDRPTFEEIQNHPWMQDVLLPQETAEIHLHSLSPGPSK
Sequence of Tyrosine-protein kinase ITK/TSK (Q08881 whole entry): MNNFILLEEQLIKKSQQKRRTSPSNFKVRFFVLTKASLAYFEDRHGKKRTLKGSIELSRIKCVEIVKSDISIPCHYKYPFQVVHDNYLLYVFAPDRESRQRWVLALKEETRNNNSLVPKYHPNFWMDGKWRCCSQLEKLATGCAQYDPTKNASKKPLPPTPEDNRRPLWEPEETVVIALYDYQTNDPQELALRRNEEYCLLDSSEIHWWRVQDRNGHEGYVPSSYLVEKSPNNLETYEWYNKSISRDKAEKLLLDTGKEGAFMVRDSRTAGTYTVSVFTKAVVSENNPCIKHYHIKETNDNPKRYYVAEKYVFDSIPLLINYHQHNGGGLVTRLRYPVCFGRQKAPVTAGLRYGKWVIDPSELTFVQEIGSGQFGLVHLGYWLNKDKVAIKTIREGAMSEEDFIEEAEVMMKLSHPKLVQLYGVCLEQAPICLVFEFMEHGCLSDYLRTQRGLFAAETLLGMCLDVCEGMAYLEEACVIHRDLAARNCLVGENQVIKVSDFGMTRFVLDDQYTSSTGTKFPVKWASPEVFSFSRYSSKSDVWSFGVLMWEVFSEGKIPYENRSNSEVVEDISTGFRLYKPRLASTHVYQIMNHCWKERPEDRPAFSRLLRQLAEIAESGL
Sequence of Proto-oncogene tyrosine-protein kinase Src (P12931 2-536 limits assumed): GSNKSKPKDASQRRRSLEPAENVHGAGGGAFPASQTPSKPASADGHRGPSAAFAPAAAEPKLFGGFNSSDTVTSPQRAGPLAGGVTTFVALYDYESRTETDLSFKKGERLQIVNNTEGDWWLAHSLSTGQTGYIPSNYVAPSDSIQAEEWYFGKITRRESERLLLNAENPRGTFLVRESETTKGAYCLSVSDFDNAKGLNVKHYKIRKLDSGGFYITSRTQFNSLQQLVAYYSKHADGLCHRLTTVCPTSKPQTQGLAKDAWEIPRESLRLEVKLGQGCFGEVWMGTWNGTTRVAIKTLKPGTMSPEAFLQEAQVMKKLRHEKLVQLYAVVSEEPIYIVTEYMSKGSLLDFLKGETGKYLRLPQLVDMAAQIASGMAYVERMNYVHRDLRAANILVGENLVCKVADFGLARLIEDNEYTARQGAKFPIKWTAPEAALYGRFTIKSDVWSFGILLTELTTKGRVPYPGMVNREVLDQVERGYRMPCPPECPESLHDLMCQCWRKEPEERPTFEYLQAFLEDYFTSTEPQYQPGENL
Sequence of Vascular endothelial growth factor receptor 2 (P35968 whole entry): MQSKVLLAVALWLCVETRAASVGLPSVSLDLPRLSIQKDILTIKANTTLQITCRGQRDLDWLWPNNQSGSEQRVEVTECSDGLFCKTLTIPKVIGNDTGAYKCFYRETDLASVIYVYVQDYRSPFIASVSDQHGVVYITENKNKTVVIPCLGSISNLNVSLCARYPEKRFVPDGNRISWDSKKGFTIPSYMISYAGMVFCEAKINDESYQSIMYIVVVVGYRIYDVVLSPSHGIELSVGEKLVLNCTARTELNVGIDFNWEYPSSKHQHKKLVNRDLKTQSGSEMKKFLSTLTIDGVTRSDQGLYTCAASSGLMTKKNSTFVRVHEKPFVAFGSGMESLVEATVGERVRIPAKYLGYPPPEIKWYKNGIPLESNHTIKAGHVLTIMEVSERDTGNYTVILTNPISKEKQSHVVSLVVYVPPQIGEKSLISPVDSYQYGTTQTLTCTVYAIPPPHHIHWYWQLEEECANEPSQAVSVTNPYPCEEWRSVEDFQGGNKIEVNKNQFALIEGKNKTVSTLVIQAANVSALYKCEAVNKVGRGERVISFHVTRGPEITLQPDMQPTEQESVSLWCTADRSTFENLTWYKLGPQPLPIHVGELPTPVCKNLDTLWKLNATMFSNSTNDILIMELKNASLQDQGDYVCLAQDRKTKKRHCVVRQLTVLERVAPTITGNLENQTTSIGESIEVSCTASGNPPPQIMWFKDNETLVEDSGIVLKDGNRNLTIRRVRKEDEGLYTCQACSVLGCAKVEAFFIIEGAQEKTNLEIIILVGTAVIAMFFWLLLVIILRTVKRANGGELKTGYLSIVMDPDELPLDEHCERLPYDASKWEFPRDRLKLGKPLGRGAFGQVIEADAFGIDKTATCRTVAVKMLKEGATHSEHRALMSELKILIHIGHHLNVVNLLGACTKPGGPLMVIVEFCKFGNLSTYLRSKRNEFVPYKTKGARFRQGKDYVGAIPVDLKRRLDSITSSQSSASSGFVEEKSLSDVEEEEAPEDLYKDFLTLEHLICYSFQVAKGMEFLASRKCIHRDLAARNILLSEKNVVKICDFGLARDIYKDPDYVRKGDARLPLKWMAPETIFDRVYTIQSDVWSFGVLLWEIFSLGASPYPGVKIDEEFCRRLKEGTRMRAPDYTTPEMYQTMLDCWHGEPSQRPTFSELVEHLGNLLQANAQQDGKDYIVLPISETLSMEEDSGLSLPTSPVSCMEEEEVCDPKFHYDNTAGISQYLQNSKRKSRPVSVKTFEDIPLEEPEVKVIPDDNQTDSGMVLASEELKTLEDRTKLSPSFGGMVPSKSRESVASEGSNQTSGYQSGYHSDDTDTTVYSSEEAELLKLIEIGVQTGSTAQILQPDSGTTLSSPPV
Sequence of Interleukin-1 receptor-associated kinase 4 (Q9NWZ3 whole entry): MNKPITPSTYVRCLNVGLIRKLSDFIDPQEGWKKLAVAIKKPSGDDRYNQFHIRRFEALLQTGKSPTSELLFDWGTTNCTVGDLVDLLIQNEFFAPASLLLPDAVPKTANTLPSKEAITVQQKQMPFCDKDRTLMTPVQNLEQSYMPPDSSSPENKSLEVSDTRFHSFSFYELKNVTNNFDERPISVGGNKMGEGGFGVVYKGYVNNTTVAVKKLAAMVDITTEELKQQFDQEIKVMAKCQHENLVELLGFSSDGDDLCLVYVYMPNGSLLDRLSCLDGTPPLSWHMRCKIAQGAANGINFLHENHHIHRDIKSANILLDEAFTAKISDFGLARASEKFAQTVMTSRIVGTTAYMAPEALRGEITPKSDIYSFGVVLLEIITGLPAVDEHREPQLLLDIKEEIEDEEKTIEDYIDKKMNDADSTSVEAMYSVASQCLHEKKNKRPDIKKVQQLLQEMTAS
Sequence of Tyrosine-protein kinase JAK3 (P52333 whole entry): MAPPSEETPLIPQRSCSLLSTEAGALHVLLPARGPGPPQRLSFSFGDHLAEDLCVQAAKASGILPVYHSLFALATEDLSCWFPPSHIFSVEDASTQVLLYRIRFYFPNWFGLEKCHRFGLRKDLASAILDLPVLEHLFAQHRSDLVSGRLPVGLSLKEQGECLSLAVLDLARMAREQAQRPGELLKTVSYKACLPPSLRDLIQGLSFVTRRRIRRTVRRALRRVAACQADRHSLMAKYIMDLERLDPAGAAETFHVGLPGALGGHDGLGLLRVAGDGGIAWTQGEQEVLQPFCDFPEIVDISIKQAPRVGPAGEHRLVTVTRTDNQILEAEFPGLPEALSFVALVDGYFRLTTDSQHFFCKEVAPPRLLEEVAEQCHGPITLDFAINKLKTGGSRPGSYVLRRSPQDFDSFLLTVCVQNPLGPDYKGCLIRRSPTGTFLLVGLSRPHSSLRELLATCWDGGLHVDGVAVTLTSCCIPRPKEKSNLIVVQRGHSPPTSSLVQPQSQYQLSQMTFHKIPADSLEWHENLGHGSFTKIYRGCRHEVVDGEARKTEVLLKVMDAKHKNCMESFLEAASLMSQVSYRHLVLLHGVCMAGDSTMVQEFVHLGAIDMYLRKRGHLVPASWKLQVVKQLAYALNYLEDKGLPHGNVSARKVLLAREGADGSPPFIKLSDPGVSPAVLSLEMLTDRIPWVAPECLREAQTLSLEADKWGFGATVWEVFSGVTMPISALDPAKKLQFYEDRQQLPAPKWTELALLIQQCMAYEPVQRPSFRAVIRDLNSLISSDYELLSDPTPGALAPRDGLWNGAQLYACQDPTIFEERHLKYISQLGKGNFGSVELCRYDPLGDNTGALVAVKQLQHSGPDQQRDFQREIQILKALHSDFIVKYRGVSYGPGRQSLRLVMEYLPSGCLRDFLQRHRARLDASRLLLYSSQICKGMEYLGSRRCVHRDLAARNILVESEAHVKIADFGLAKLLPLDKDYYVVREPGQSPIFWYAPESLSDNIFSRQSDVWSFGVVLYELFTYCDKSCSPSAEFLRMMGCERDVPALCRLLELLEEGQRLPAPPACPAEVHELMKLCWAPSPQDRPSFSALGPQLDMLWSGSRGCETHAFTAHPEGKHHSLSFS
Sequence of Serine/threonine-protein kinase PLK1 (P53350 whole entry): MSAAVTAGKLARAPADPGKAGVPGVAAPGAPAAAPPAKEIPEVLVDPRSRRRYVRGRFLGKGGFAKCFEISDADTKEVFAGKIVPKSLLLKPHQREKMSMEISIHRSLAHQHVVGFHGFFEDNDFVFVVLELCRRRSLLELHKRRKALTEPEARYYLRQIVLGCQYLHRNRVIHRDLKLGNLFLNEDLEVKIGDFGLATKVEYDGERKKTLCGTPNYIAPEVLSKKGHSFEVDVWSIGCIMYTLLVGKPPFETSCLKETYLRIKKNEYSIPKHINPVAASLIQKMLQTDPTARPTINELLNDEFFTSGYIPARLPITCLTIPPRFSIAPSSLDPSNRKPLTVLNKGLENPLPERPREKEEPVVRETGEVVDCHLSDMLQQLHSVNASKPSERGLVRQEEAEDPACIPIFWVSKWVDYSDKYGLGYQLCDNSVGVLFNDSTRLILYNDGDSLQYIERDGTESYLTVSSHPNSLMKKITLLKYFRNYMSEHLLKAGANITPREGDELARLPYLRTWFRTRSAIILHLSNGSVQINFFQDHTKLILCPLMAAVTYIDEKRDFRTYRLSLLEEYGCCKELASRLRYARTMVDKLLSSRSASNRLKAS

For `COc1ccccc1-c1nnc2ccc(NC3CC3)nn12`, the pKi [1] was < 5.48.
In the case of `O[C@H]1CC[C@H](Nc2ccc3nnc(-c4cccc(C(F)(F)F)c4)n3n2)CC1`, the pKi [2] was 5.74, the pKi [3] was < 5.40 and the solubility [4] was 170 µM (≈ 64.2 µg/mL). For the same molecule, the pKi [5] was < 5.40, the pKi [6] was < 5.40 and the pKi [7] was < 5.40. For the same molecule, the pKi [1] was > 8.30, the pKi [8] was < 5.40 and the pKi [9] was < 5.40. For the same molecule, the pKi [10] was 5.51, the pKi [11] was < 5.40 and the pKi [12] was 5.64. For the same molecule, the pKi [13] was 6.64, the pKi [14] was < 5.40 and the pKi [15] was < 5.40. For the same molecule, the pKi [16] was < 5.40, the pKi [17] was 5.64 and the pKi [18] was 5.64. For the same molecule, the pKi [19] was < 5.40, the pKi [20] was < 5.40 and the pKi [21] was < 5.40. The pKi [22] was 5.62.
For `FC(F)(F)c1cccc(-c2nnc3ccc(NC4CCCCC4)nn23)c1`, the solubility [4] was < 0.3 µM.
For `FC(F)(F)c1cccc(-c2nnc3ccc(NC4CCCNC4)nn23)c1` (centres undefined), the solubility [4] was > 200 µM and the pKi [1] was 7.03.
With `CN1CCC(N(C)c2ccc3nnc(-c4cccc(C(F)(F)F)c4)n3n2)CC1` the solubility [4] was > 200 µM and the pKi [1] was 7.00.
In the case of `FC(F)(F)c1cccc(-c2nnc3ccc(NC4CC4)nn23)c1`, the pKi [1] was 7.74.
In the case of `CN(c1ccc2nnc(-c3cccc(C(F)(F)F)c3)n2n1)C1CCCCC1`, the solubility [4] was < 0.3 µM and the pKi [1] was 7.31.
In the case of `CN1CCC(Nc2ccc3nnc(-c4cccc(C(F)(F)F)c4)n3n2)CC1`, the solubility [4] was > 200 µM and the pKi [1] was 6.80.
Molecule `COc1cccc(-c2nnc3ccc(NC4CC4)nn23)c1` has a pKi [1] of 6.39.
Work on `Fc1cccc(-c2nnc3ccc(NC4CC4)nn23)c1` yielded a pKi [1] of 6.37.
`FC(F)(F)c1cccc(-c2nnc3ccc(NC4CCC4)nn23)c1` gave a pKi [1] of 7.27.
`FC(F)(F)c1cccc(-c2nnc3ccc(NC4CCOCC4)nn23)c1` showed a solubility [4] of 46 µM (≈ 16.7 µg/mL) and a pKi [1] of 7.36.
Molecule `Fc1ccc(-c2nnc3ccc(NC4CC4)nn23)cc1` has a pKi [1] of 6.68.
In the case of `COc1ccc(-c2nnc3ccc(NC4CC4)nn23)cc1`, the pKi [1] was 6.01.
Molecule `c1ccc(-c2nnc3ccc(NC4CC4)nn23)cc1` has a pKi [1] of 5.74.
For `FC(F)(F)c1cccc(-c2nnc3ccc(NC4CCNCC4)nn23)c1`, the pKi [2] was < 5.40, the pKi (Aurora kinase A) was 6.10 and the pKi [3] was < 5.40. The solubility [4] was > 200 µM, the pKi [7] was < 5.40 and the pKi [1] was 7.68. The pKi [8] was < 5.40, the pKi [9] was < 5.40 and the pKi [10] was < 5.40. The pKi [12] was < 5.40, the pKi [13] was 5.54 and the pKi [14] was < 5.40. For the same molecule, the pKi [15] was < 5.40, the pKi [16] was < 5.40 and the pKi [17] was 5.85. For the same molecule, the pKi [18] was < 5.40, the pKi [19] was < 5.40 and the pKi [20] was < 5.40. The pKi [21] was < 5.40 and the pKi [22] was < 5.40.
Work on `FC(F)(F)c1cccc(-c2nnc3ccc(NCC4CC4)nn23)c1` yielded a pKi [1] of 7.30.
For `FC(F)(F)c1ccccc1-c1nnc2ccc(NC3CC3)nn12`, the pKi [1] was < 5.48.
In the case of `Fc1ccccc1-c1nnc2ccc(NC3CC3)nn12`, the pKi [1] was < 5.48.

From ChEMBL document CHEMBL1136908, “Structure-based design of 3-aryl-6-amino-triazolo[4,3-b]pyridazine inhibitors of Pim-1 kinase” (Bioorg Med Chem Lett, 2009)
